Reference: publication PMC7794376 (Nature Communications, 2021)
In brackets after ≈: the same amount, converted by molar mass. Where two headings read alike, the source gives them in different places.

Assays:
MtbCoaBC [1] = biological target: T1, MtbCoaBC (Mycobacterium tuberculosis, UniProt P9WNZ1); assay: biochemical; format: biochemical; details: for activity at 0.03125 µM / activity at 0.0625 µM / activity at 0.25 µM / activity at 0.5 µM / activity at 1 µM / activity at 2 µM: relative to average DMSO CT; for Activity R1 / Activity R3: slope of absorbance at 360 nm vs time (s); for IC50: read-out: IC50 EnzChek MtbCoaBC
MtbCoaBC [2] = biological target: T1, MtbCoaBC; assay: High-throughput end-point pyrophosphate quantification assay (Biomol Green); format: biochemical; details: MtbCoaB activity; end-point, 2 µM CTP, 40 µM L-cysteine, 30 µM PPA; read-out: IC50 biomol green assay
M. tuberculosis H37Rv = assay: MIC determination in different media; format: cell-based; details: Mycobacterium tuberculosis, read-out: Minimum inhibitory concentration (MIC)
[3] = uM 1c 0.125 as printed, replicates R1-R3

T1 sequence (P9WNZ1 whole entry): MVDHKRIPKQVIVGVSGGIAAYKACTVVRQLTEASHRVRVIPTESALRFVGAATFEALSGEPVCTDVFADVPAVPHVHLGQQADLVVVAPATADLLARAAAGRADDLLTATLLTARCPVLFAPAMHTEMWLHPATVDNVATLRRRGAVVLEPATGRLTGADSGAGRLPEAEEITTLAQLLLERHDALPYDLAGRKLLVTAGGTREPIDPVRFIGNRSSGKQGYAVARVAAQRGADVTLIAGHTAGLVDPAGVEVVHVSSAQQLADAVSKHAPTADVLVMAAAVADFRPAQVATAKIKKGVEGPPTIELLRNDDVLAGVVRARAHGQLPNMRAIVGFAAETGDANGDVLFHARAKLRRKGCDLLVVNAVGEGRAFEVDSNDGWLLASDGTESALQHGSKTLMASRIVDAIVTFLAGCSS

O=c1cc(-c2ccc(O)cc2)oc2c(O)c(O)ccc12 [2e]
inhibition at 0.03125 µM (MtbCoaBC [1]; 0.03125 uM 2e, replicate R1, read-out: Inhibition % R1): 5.66% | activity at 0.03125 µM (MtbCoaBC [1]; 0.03125 uM 2e, replicate R1, read-out: Activity % R1): 94.3% | Activity R1 (MtbCoaBC [1]; 0.03125 uM 2e, replicate R1): 0.0001715 | inhibition at 0.03125 µM (MtbCoaBC [1]; 0.03125 uM 2e, replicate R2, read-out: Inhibition % R2): 2.73% | activity at 0.03125 µM (MtbCoaBC [1]; 0.03125 uM 2e, replicate R2, read-out: Activity % R2): 97.3% | inhibition at 0.03125 µM (MtbCoaBC [1]; 0.03125 uM 2e, replicate R3, read-out: Inhibition % R3): 8.32% | activity at 0.03125 µM (MtbCoaBC [1]; 0.03125 uM 2e, replicate R3, read-out: Activity % R3): 91.7% | Activity R3 (MtbCoaBC [1]; 0.03125 uM 2e, replicate R3): 0.0001667 | inhibition at 0.0625 µM (MtbCoaBC [1]; 0.0625 uM 2e, replicate R1, read-out: Inhibition % R1): 10.7% | activity at 0.0625 µM (MtbCoaBC [1]; 0.0625 uM 2e, replicate R1, read-out: Activity % R1): 89.3% | Activity R1 (MtbCoaBC [1]; 0.0625 uM 2e, replicate R1): 0.0001624 | inhibition at 0.0625 µM (MtbCoaBC [1]; 0.0625 uM 2e, replicate R2, read-out: Inhibition % R2): 12.6% | activity at 0.0625 µM (MtbCoaBC [1]; 0.0625 uM 2e, replicate R2, read-out: Activity % R2): 87.4% | inhibition at 0.0625 µM (MtbCoaBC [1]; 0.0625 uM 2e, replicate R3, read-out: Inhibition % R3): 12.3% | activity at 0.0625 µM (MtbCoaBC [1]; 0.0625 uM 2e, replicate R3, read-out: Activity % R3): 87.7% | Activity R3 (MtbCoaBC [1]; 0.0625 uM 2e, replicate R3): 0.0001594 | inhibition at 0.25 µM (MtbCoaBC [1]; 0.25 uM 2e, replicate R1, read-out: Inhibition % R1): 38.7% | activity at 0.25 µM (MtbCoaBC [1]; 0.25 uM 2e, replicate R1, read-out: Activity % R1): 61.3% | Activity R1 (MtbCoaBC [1]; 0.25 uM 2e, replicate R1): 0.0001114 | inhibition at 0.25 µM (MtbCoaBC [1]; 0.25 uM 2e, replicate R2, read-out: Inhibition % R2): 33.5% | activity at 0.25 µM (MtbCoaBC [1]; 0.25 uM 2e, replicate R2, read-out: Activity % R2): 66.5% | inhibition at 0.25 µM (MtbCoaBC [1]; 0.25 uM 2e, replicate R3, read-out: Inhibition % R3): 37.4% | activity at 0.25 µM (MtbCoaBC [1]; 0.25 uM 2e, replicate R3, read-out: Activity % R3): 62.6% | Activity R3 (MtbCoaBC [1]; 0.25 uM 2e, replicate R3): 0.0001138 | inhibition at 0.5 µM (MtbCoaBC [1]; 0.5 uM 2e, replicate R1, read-out: Inhibition % R1): 54.7% | activity at 0.5 µM (MtbCoaBC [1]; 0.5 uM 2e, replicate R1, read-out: Activity % R1): 45.3% | Activity R1 (MtbCoaBC [1]; 0.5 uM 2e, replicate R1): 0.000082371 | inhibition at 0.5 µM (MtbCoaBC [1]; 0.5 uM 2e, replicate R2, read-out: Inhibition % R2): 61.3% | activity at 0.5 µM (MtbCoaBC [1]; 0.5 uM 2e, replicate R2, read-out: Activity % R2): 38.7% | inhibition at 0.5 µM (MtbCoaBC [1]; 0.5 uM 2e, replicate R3, read-out: Inhibition % R3): 57.9% | activity at 0.5 µM (MtbCoaBC [1]; 0.5 uM 2e, replicate R3, read-out: Activity % R3): 42.1% | Activity R3 (MtbCoaBC [1]; 0.5 uM 2e, replicate R3): 0.000076593 | inhibition at 1 µM (MtbCoaBC [1]; 1 uM 2e, replicate R1, read-out: Inhibition % R1): 69.6% | activity at 1 µM (MtbCoaBC [1]; 1 uM 2e, replicate R1, read-out: Activity % R1): 30.4% | Activity R1 (MtbCoaBC [1]; 1 uM 2e, replicate R1): 0.000055348 | inhibition at 1 µM (MtbCoaBC [1]; 1 uM 2e, replicate R2, read-out: Inhibition % R2): 78.2% | activity at 1 µM (MtbCoaBC [1]; 1 uM 2e, replicate R2, read-out: Activity % R2): 21.8% | inhibition at 1 µM (MtbCoaBC [1]; 1 uM 2e, replicate R3, read-out: Inhibition % R3): 75.2% | activity at 1 µM (MtbCoaBC [1]; 1 uM 2e, replicate R3, read-out: Activity % R3): 24.8% | Activity R3 (MtbCoaBC [1]; 1 uM 2e, replicate R3): 0.000045005 | inhibition at 2 µM (MtbCoaBC [1]; 2 uM 2e, replicate R1, read-out: Inhibition % R1): 96.5% | activity at 2 µM (MtbCoaBC [1]; 2 uM 2e, replicate R1, read-out: Activity % R1): 3.46% | Activity R1 (MtbCoaBC [1]; 2 uM 2e, replicate R1): 0.000006285 | inhibition at 2 µM (MtbCoaBC [1]; 2 uM 2e, replicate R2, read-out: Inhibition % R2): 91.3% | activity at 2 µM (MtbCoaBC [1]; 2 uM 2e, replicate R2, read-out: Activity % R2): 8.65% | inhibition at 2 µM (MtbCoaBC [1]; 2 uM 2e, replicate R3, read-out: Inhibition % R3): 93% | activity at 2 µM (MtbCoaBC [1]; 2 uM 2e, replicate R3, read-out: Activity % R3): 6.96% | Activity R3 (MtbCoaBC [1]; 2 uM 2e, replicate R3): 0.000012661 | IC50 (MtbCoaBC [1]): 3 ± 0.2 µM | IC50 (MtbCoaBC [2]): 2.2 µM | MIC (M. tuberculosis H37Rv; 7H9/ADC/Glycerol): > 250 µM | MIC (M. tuberculosis H37Rv; GAST/Fe): 125 µM (≈ 33.8 µg/mL)

Oc1ccc(Cc2ccc(O)c(O)c2O)cc1 [compound 1c]
IC50 (MtbCoaBC [1]): 4.6 ± 0.4 µM | remaining activity at 0.03125 µM (MtbCoaBC [1]; uM 1c 0.03125 as printed, replicates R1-R3): 94.6% | remaining activity at 0.0625 µM (MtbCoaBC [1]; uM 1c 0.0625 as printed, replicates R1-R3): 87.8% | inhibition at 0.0625 µM (MtbCoaBC [1]; uM 1c 0.0625 as printed, replicates R1-R3, read-out: Inhibition %): 17.8% | inhibition at […] (MtbCoaBC [1]; [3]): 29.1% | remaining activity at […] (MtbCoaBC [1]; [3]): 74.8% | remaining activity at 0.25 µM (MtbCoaBC [1]; uM 1c 0.25 as printed, replicates R1-R3): 65.6% | inhibition at 0.25 µM (MtbCoaBC [1]; uM 1c 0.25 as printed, replicates R1-R3, read-out: Inhibition %): 40.6% | remaining activity at 0.5 µM (MtbCoaBC [1]; uM 1c 0.5 as printed, replicates R1-R3): 40.9% | inhibition at 0.5 µM (MtbCoaBC [1]; uM 1c 0.5 as printed, replicates R1-R3, read-out: Inhibition %): 68.6% | inhibition at 1 µM (MtbCoaBC [1]; uM 1c 1 as printed, replicates R1-R3, read-out: Inhibition %): 89.7% | inhibition at 2 µM (MtbCoaBC [1]; uM 1c 2 as printed, replicates R1-R3, read-out: Inhibition %): 95% | IC50 (MtbCoaBC [2]): 4.7 µM | MIC (M. tuberculosis H37Rv; 7H9/ADC/Glycerol): > 250 µM | MIC (M. tuberculosis H37Rv; GAST/Fe): 125 µM (≈ 29 µg/mL)
